Test results: patent publication US20230303540A1 (Merck Sharp & Dohme LLC, priority 2020, published 2023)

Each compound was assayed against GST-tagged truncated human mutant G2019S LRRK2 (Homo sapiens, UniProt Q5S007, G2019S) (assay: LRRK2 G2019S Km ATP LanthaScreen assay). Details: 134 μM ATP (Km ATP), LRRKtide substrate, mean IC50 values; read-out: LRRK2 pIC50 (converted).
Assay type: biochemical
Outline: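 Compound preincubated 15 min at room temperature with enzyme in pH 8.5 Tris buffer (10 mM MgCl2). Then a 90 min reaction at ambient temperature with 134 μM (Km) ATP and fluorescein-LRRKtide. EDTA stop, Tb anti-phospho antibody TR-FRET; […]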

| Compound | IC50 |
| --- | --- |
| COCC12CC(n3cc(Nc4ncc5cc(Cl)c(N6CCC7(CC6)COC(CO)C7)cc5n4)cn3)(C1)C2 (single isomer, unassigned) [Ex-3.17, (R) or (S)-{8-[6-chloro-2-({1-[3-(methoxymethyl)bicyclo[1.1.1]pentan-1-yl]-1H-pyrazol-4-yl}amino)quinazolin-7-yl]-2-oxa-8-azaspiro[4.5]decan-3-yl}methanol] | 2.28 nM |
| Cc1cc2cnc(Nc3cnn(C4CC4)c3C)nc2cc1N1CCN(C2(C)COCC2O)CC1 (single isomer, unassigned) [Ex-5.4, (3S,4S) or (3R,4R) 4-(4-(2-((1-cyclopropyl-5-methyl-1H-pyrazol-4-yl)amino)-6-methylquinazolin-7-yl)piperazin-1-yl)-4-methyltetrahydrofuran-3-ol] | 0.18 nM |
| CCn1ncc(Nc2ncc3cc(Cl)c(N4CCN(C5(C)COC5)CC4)cc3n2)c1C [Ex-4.13, 6-chloro-N-(1-ethyl-5-methyl-1H-pyrazol-4-yl)-7-[4-(3-methyloxetan-3-yl)piperazin-1-yl]quinazolin-2-amine] | 6.83 nM |
| Cc1c(Nc2cc3cc(N4CCN(C5(C)COCC5O)CC4)c(Cl)cc3cn2)cnn1C1CC1 (single isomer, unassigned) [Ex-6.51, (3S,4S) or (3R,4R) 4-(4-(7-chloro-3-((1-cyclopropyl-5-methyl-1H-pyrazol-4-yl)amino)isoquinolin-6-yl)piperazin-1-yl)-4-methyltetrahydrofuran-3-ol] | 1.35 nM |
| Cc1c(Nc2ncc3cc(Cl)c(N4CCN(C5(C)COCC5O)CC4)cc3n2)cnn1C1CC1(F)F (single isomer, unassigned) [Ex-6.40, (3S,4S) or (3R,4R) 4-[4-(6-chloro-2-{[1-(2,2-(R) or (S)difluorocyclopropyl)-5-methyl-1H-pyrazol-4-yl]amino}quinazolin-7-yl)piperazin-1-yl]-4-methyloxolan-3-ol] | 0.352 nM |
| Cc1c(Nc2ncc3cc(Cl)c(N4CCC(C)(O)CC4)cc3n2)cnn1C(C)(C)C#N [Ex-6.15, 2-(4-{[6-chloro-7-(4-hydroxy-4-methylpiperidin-1-yl)quinazolin-2-yl]amino}-5-methyl-1H-pyrazol-1-yl)-2-methylpropanenitrile] | 3.57 nM |
| Cc1c(Nc2ncc3cc(Cl)c(N4CCN(C5COCC5O)CC4)cc3n2)cnn1C(C)(C)C#N (single isomer, unassigned) [Ex-6.23, (3S,4S) or (3R,4R) 2-[4-({6-chloro-7-[4-(4-hydroxyoxolan-3-yl)piperazin-1-yl]quinazolin-2-yl}amino)-5-methyl-1H-pyrazol-1-yl]-2-methylpropanenitrile] | 13.2 nM |
| CC1(n2ncc(Nc3ncc4cc(Cl)c(N5CC6(CN(CC(F)(F)F)C6)C5)cc4n3)c2Cl)CC1 [Ex-4.38, 6-chloro-N-[5-chloro-1-(1-methylcyclopropyl)-1H-pyrazol-4-yl]-7-[6-(2,2,2-trifluoroethyl)-2,6-diazaspiro[3.3]heptan-2-yl]quinazolin-2-amine] | 29.4 nM |
| CC1(N2CCN(c3cc4nc(Nc5cnn(C6CC6(F)F)c5Cl)ncc4cc3Cl)CC2)COCC1O (single isomer, unassigned) [Ex-6.33, (3S,4S) or (3R,4R) 4-[4-(6-chloro-2-{[5-chloro-1-(2,2-(R) or (S)difluorocyclopropyl)-1H-pyrazol-4-yl]amino}quinazolin-7-yl)piperazin-1-yl]-4-methyloxolan-3-ol] | 0.212 nM |
| Cn1ncc(Nc2ncc3ccc(N4C(=O)C5CCC4C5)cc3n2)c1C(F)(F)F (single isomer, unassigned) [Ex-4.4, 2-(2-{[1-methyl-5-(trifluoromethyl)-1H-pyrazol-4-yl]amino}quinazolin-7-yl)-2-azabicyclo[2.2.1]heptan-3-one] | 24.6 nM |
| Cc1c(Nc2ncc3cc(F)c(NCC4CC4)nc3n2)cnn1C1CCOCC1 [Ex-15.5, N-7-(cyclopropylmethyl)-6-fluoro-N-2-[5-methyl-1-(oxan-4-yl)-1H-pyrazol-4-yl]pyrido[2,3-d]pyrimidine-2,7-diamine] | 32.6 nM |
| C[C@H]1COC(=O)N1c1ccc2cnc(Nc3ccns3)nc2c1 [Ex-8.8, (4S)-4-methyl-3-{2-[(1,2-thiazol-5-yl)amino]quinazolin-7-yl}-1,3-oxazolidin-2-one] | 5.08 nM |
| Cc1c(Nc2ncc3cc(Cl)c(N4CCC(C)(O)CC4)cc3n2)cnn1C1CC1(F)F (single isomer, unassigned) [Ex-6.9, 1-(6-chloro-2-{[1-(2,2-(R) or (S)difluorocyclopropyl)-5-methyl-1H-pyrazol-4-yl]amino}quinazolin-7-yl)-4-methylpiperidin-4-ol] | 1.79 nM |
| CC1CN(c2cc3nc(Nc4cnn(C5CC5)c4Cl)ncc3cc2Cl)CCN1C1COCC1O (single isomer, unassigned) [Ex-12.6, (3S,4S) or (3R, 4R)-4-((R) or (S)-4-(4-(6-chloro-2-((5-chloro-1-cyclopropyl-1H-pyrazol-4-yl)amino)quinazolin-7-yl)-2-methylpiperazin-1-yl)tetrahydrofuran-3-ol] | 13.6 nM |
| Cc1c(Nc2cc3cc(N4CCN(C5(C)COCC5O)CC4)c(Cl)cc3cn2)cnn1C1CC1(F)F (single isomer, unassigned) [Ex-6.53, (3S,4S) or (3R,4R) 4-(4-(7-chloro-3-((1-(2,2-difluorocyclopropyl)-5-methyl-1H-pyrazol-4-yl)amino)isoquinolin-6-yl)piperazin-1-yl)-4-methyltetrahydrofuran-3-ol] | 0.522 nM |
| Cc1c(Nc2ncc3cc(Cl)c(N4CCC(C)(O)CC4C)cc3n2)cnn1C1CC1 (single isomer, unassigned) [Ex-9.1, (2R,4S or 2S,4R, or 2S,4S, or 2R,4R)-1-(6-Chloro-2-((1-cyclopropyl-5-methyl-1H-pyrazol-4-yl)amino)quinazolin-7-yl)-2,4-dimethylpiperidin-4-ol] | 4.68 nM |
| COCC12CC(n3cc(Nc4ncc5cc(Cl)c(N6CCC7(CCOC7)CC6)cc5n4)cn3)(C1)C2 [Ex-3.33, 6-chloro-N-{1-[3-(methoxymethyl)bicyclo[1.1.1]pentan-1-yl]-1H-pyrazol-4-yl}-7-(2-oxa-8-azaspiro [4.5]decan-8-yl)quinazolin-2-amine] | 1.15 nM |
| Clc1cc2cnc(Nc3cnn(C4CC4)c3Cl)nc2cc1N1C[C@@H]2C[C@H]1CN2C1COC1 [Ex-1.33, 6-chloro-N-(5-chloro-1-cyclopropyl-1H-pyrazol-4-yl)-7-[(1S,4S)-5-(oxetan-3-yl)-2,5-diazabicyclo[2.2.1]heptan-2-yl]quinazolin-2-amine] | 26.1 nM |
| CCn1ncc(Nc2ncc3ccc(N4CCC4C)cc3n2)c1C (single isomer, unassigned) [Ex-1.11, (S) or (R) N-(1-ethyl-5-methyl-1H-pyrazol-4-yl)-7-(2-methylazetidin-1-yl)quinazolin-2-amine] | 33.2 nM |
| Cc1c(Nc2ncc3cc(Cl)c(N4CCN(C5(C)COCC5O)CC4)cc3n2)cnn1C1CC1(F)F (single isomer, unassigned) [Ex-6.41, (3S,4S) or (3R,4R) 4-[4-(6-chloro-2-{[1-(2,2-(R) or (S)difluorocyclopropyl)-5-methyl-1H-pyrazol-4-yl]amino}quinazolin-7-yl)piperazin-1-yl]-4-methyloxolan-3-ol] | 32.9 nM |
| Cn1ncc(Nc2ncc3ccc(N4C(=O)C5CCC4C5)cc3n2)c1C(F)F (single isomer, unassigned) [Ex-4.6, 2-(2-{[5-(difluoromethyl)-1-methyl-1H-pyrazol-4-yl]amino}quinazolin-7-yl)-2-azabicyclo[2.2.1]heptan-3-one] | 34.9 nM |
| O[C@@H]1COC[C@@H]1N1CCN(c2cc3nc(Nc4cnn(C5CC5)c4Cl)ncc3cc2Cl)CC1 (single isomer, unassigned) [Ex-3.52, (3R,4R) or (3S,4S) 4-(4-{6-chloro-2-[(5-chloro-1-cyclopropyl-1H-pyrazol-4-yl)amino]quinazolin-7-yl}piperazin-1-yl)oxolan-3-ol] | 0.887 nM |
| CC1(N2CCN(c3cc4nc(Nc5cnn(C6CC6(F)F)c5Cl)ncc4cc3Cl)CC2)COCC1O (single isomer, unassigned) [Ex-6.34, (3S,4S) or (3R,4R) 4-[4-(6-chloro-2-{[5-chloro-1-(2,2-(R) or (S)difluorocyclopropyl)-1H-pyrazol-4-yl]amino}quinazolin-7-yl)piperazin-1-yl]-4-methyloxolan-3-ol] | 10.6 nM |
| Cc1c(Nc2ncc3cc(Cl)c(N4CCN(C5COCC5O)CC4)cc3n2)cnn1CC(F)F (single isomer, unassigned) [Ex-6.25, (3S,4S) or (3R,4R) 4-[4-(6-chloro-2-{[1-(2,2-difluoroethyl)-5-methyl-1H-pyrazol-4-yl]amino}quinazolin-7-yl)piperazin-1-yl]oxolan-3-ol] | 0.418 nM |
| CC1(O)CCN(c2cc3nc(Nc4cnn(C5CC5)c4Cl)ncc3cc2Cl)C1 (centres unmarked) [Ex-1.38, 1-{6-chloro-2-[(5-chloro-1-cyclopropyl-1H-pyrazol-4-yl)amino]quinazolin-7-yl}-3-methylpyrrolidin-3-ol] | 9.77 nM |
| CN(C)c1cc2nc(Nc3cnn(C4CC4)c3)ncc2cc1Cl [Ex-3.29, 6-chloro-N-2-(1-cyclopropyl-1H-pyrazol-4-yl)-N-7-,N-7-dimethylquinazoline-2,7-diamine] | 8.79 nM |
| CCn1ncc(Nc2ncc3ccc(N4CCCC4C)cc3n2)c1C (single isomer, unassigned) [Ex-1.9, (S) or (R) N-(1-ethyl-5-methyl-1H-pyrazol-4-yl)-7-(2-methylpyrrolidin-1-yl)quinazolin-2-amine] | 36.1 nM |
| Cc1nn(C2C[C@@H](C)O[C@@H](C)C2)cc1Nc1ncc2ccc(N3C(=O)OC[C@@H]3C)cc2n1 (stereo partly drawn) [Ex-7.5, (4S)-3-[2-({1-[(2R,6S)-2,6-dimethyloxan-4-yl]-3-methyl-1H-pyrazol-4-yl}amino)quinazolin-7-yl]-4-methyl-1,3-oxazolidin-2-one] | 33.7 nM |
| CC1(O)C2CC1CN(c1cc3nc(Nc4cnn(C5CC5)c4Cl)ncc3cc1Cl)C2 (centres unmarked) [Ex-1.41, 3-{6-chloro-2-[(5-chloro-1-cyclopropyl-1H-pyrazol-4-y)amino]quinazolin-7-yl}-6-methyl-3-azabicyclo[3.1.1]heptan-6-ol] | 8.93 nM |
